From patent publication US11298345B2, “Compounds that modulates AMPA receptor function” (University College Cardiff Consultants Limited, priority 2018, dated 2022)

Molecular target: T1, human GluR2 flip (unedited) AMPA receptor subunit (Homo sapiens, UniProt P42262)
T1 construct: host or cells: HEK 293
Test: AMPA calcium ion influx assay
Format: cell-based
Conditions: HEK293; test compound concentration of 10 μM; HEK 293 cells expressing human GluR2 flip; glutamate stimulus; read-out: Mean % response at 10 μM
Source text: The potentiation of AMPA receptors by the compounds of the invention may be assessed by measuring calcium ion influx via AMPA receptors upon exposure of the receptor to glutamate in the presence of a test compound. One such assay is the calcium ion influx assay described in the Examples using cells which express human GluR2 flip (GluA2 flip) AMPA receptor subunits which form functional homotetrameric AMPA receptors. The GluA2 flip sub-units are highly expressed in cortical and sub-cortical brain tissue (Ward et al., 2010, ibid).
The ability of the compounds of the invention to potentiate glutamate receptor-mediated response was determined using fluorescent calcium-indicator dye.
96 well plates were prepared containing confluent monolayer of HEK 293 cells stably expressing human GluR2 flip (unedited) AMPA receptor subunit (obtained from GlaxoSmithKline). These cells form functional homotetrameric AMPA receptors. The tissue culture medium in the wells was discarded and the wells were each washed three times with standard buffer for the cell line ([…] NaCl, 5 mM KCl, 1 mM MgCl2, 2 mM CaCl2, 20 mM N-[2-hydroxyethyl]-piperazine-N-[2-ethanesulfonic acid (HEPES), 5.5 mM glucose, pH7.3). The plates were then incubated for 60 minutes in the dark with 2 μM Calcium 6 dye (Molecular Devices). After incubation, each well was washed three times with buffer (80 μl).
Compounds of the invention were dissolved in dimethylsulfoxide (DMSO) at a stock concentration of 10 mM. These solutions were further diluted with DMSO. Each dilution (4 μl) to another compound plate and buffer (200 μl) was added. An agonist stimulus plate (glutamate) was prepared by dissolving sodium glutamate in water to give a concentration of 100 mM. This solution was diluted with buffer to give a final concentration of 500 μM and dispensed into another 96 well plate (200 μl/well).
The cell plate was then transferred to a fluorescence imaging plate reader such as the Flexstation 3 (Molecular Devices). A baseline fluorescence was taken over a 10 to 240 second period and then 40 μl from each plate containing a compound of the invention made up in standard buffer solution was added. Volumes were chosen to give a final concentration range of 40 μM to 4 μM. The fluorescence was then read over a 4 minute period. The activities of the compounds were determined by measuring peak fluorescence after the last addition. The activity can also be expressed relative to the fluorescence increase induced by cyclothiazide at their maximum response (i.e. greater than 40 μM).

T1 sequence (P42262 22-883 isoform P42262-2 limits assumed): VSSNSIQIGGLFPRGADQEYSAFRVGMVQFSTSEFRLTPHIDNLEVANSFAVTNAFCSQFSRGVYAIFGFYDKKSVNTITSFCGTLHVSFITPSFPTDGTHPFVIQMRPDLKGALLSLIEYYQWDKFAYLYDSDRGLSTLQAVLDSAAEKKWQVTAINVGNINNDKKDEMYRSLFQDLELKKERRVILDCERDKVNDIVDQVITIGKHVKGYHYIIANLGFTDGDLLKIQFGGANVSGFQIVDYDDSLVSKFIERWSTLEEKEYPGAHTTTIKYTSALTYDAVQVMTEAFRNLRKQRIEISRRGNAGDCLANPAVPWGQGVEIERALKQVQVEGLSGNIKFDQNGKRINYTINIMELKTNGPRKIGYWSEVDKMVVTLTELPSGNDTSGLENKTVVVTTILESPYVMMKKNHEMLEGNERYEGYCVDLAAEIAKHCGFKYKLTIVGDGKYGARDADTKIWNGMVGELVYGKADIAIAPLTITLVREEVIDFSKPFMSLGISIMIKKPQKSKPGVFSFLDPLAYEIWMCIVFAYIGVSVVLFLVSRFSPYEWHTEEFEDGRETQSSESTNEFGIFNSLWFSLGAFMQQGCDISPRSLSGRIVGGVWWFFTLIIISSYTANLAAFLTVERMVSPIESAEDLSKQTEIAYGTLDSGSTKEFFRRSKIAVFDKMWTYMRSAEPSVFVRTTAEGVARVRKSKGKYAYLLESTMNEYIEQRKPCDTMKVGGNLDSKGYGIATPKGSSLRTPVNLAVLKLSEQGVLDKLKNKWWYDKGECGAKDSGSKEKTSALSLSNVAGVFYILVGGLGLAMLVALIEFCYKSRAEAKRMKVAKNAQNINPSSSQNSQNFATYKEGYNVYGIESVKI

SMILES | activation at 10 µM [%]
Cc1cc(C(F)(F)F)nc(-c2ccc(CN3CCCC3=O)cc2)c1C#N [Example 5, 4-Methyl-2-[4-[(2-oxopyrrolidin-1-yl)methyl]phenyl]-6-(trifluoromethyl)pyridine-3-carbonitrile] | 99
O=C1COCCN1Cc1ccc(-c2nc(C(F)(F)F)ccc2CO)cc1 [Example 10, 4-[[4-[3-(Hydroxymethyl)-6-(trifluoromethyl)-2-pyridyl]phenyl]methyl]morpholin-3-one] | 3
O=C1CCCN1Cc1ccc(-c2ccc(CF)c(C(F)(F)F)n2)cc1 [Example 16, 1-[[4-[5-(Fluoromethyl)-6-(trifluoromethyl)-2-pyridyl]phenyl]methyl]pyrrolidin-2-one] | 28
Cc1cc(C(F)(F)F)nc(-c2ccc(CN3CCCC3=O)cc2)c1CF [Example 17, 1-[[4-[3-(Fluoromethyl)-4-methyl-6-(trifluoromethyl)-2-pyridyl]phenyl]methyl]pyrrolidin-2-one] | 111
COCc1cc(-c2ccc(CN3CCCC3=O)cc2)nc(C(F)(F)F)c1 [Example 26, 1-[[4-[4-(Methoxymethyl)-6-(trifluoromethyl)-2-pyridyl]phenyl]methyl]pyrrolidin-2-one] | 4
O=C1CCCN1Cc1ccc(-c2nc(C(F)(F)F)ccc2CO)cc1 [Example 4, 1-[[4-[3-(Hydroxymethyl)-6-(trifluoromethyl)-2-pyridyl]phenyl]methyl]pyrrolidin-2-one] | 9
O=C1COCCN1Cc1ccc(-c2nc(C(F)(F)F)ccc2CF)cc1 [Example 21, 4-[[4-[3-(Fluoromethyl)-6-(trifluoromethyl)-2-pyridyl]phenyl]methyl]morpholin-3-one] | 16
Cc1cc(C(F)(F)F)nc(-c2ccc(CN3CCCC3=O)cc2)c1CO [Example 2, 1-[[4-[3-(Hydroxymethyl)-4-methyl-6-(trifluoromethyl)-2-pyridyl]phenyl]methyl]pyrrolidin-2-one] | 41
Cc1cc(C(F)(F)F)nc(-c2ccc(CN3CCOCCC3=O)cc2)c1CO [Example 13, 4-[[4-[3-(Hydroxymethyl)-4-methyl-6-(trifluoromethyl)-2-pyridyl]phenyl]methyl]-1,4-oxazepan-5-one] | 5
Cc1cc(C(F)(F)F)nc(-c2ccc(CN3CCOCC3=O)cc2)c1C#N [Example 24, 4-Methyl-2-[4-[(3-oxomorpholin-4-yl)methyl]phenyl]-6-(trifluoromethyl)pyridine-3-carbonitrile] | 39
Cc1cc(C(F)(F)F)nc(-c2ccc(CN3CCCC3=O)cc2)n1 [Example 27, 1-[[4-[4-Methyl-6-(trifluoromethyl)pyrimidin-2-yl]phenyl]methyl]pyrrolidin-2-one] | 27
N#Cc1ccc(C(F)(F)F)nc1-c1ccc(CN2CCCC2=O)cc1 [Example 7, 2-[4-[(2-Oxopyrrolidin-1-yl)methyl]phenyl]-6-(trifluoromethyl)pyridine-3-carbonitrile] | 21
Cc1cc(C(F)(F)F)nc(-c2ccc(CN3CCCC3=O)nc2)c1CO [Example 14, 1-[[5-[3-(Hydroxymethyl)-4-methyl-6-(trifluoromethyl)-2-pyridyl]-2-pyridyl]methyl]pyrrolidin-2-one] | 5
N#Cc1ccc(C(F)(F)F)nc1-c1ccc(CN2CCOCC2=O)cc1 [Example 11, 2-[4-[(3-Oxomorpholin-4-yl)methyl]phenyl]-6-(trifluoromethyl)pyridine-3-carbonitrile] | 11
O=C1CCCN1Cc1ccc(-c2nc(C(F)(F)F)ccc2CF)cn1 [Example 23, 1-[[5-[3-(Fluoromethyl)-6-(trifluoromethyl)-2-pyridyl]-2-pyridyl]methyl]pyrrolidin-2-one] | 9
N#Cc1ccc(C(F)(F)F)nc1-c1ccc(CN2CCCC2=O)nc1 [Example 15, 2-[6-[(2-Oxopyrrolidin-1-yl)methyl]-3-pyridyl]-6-(trifluoromethyl)pyridine-3-carbonitrile] | 6
O=C1CCCN1Cc1ccc(-c2ccc(CO)c(C(F)(F)F)n2)cc1 [Example 1, 1-[[4-[5-(Hydroxymethyl)-6-(trifluoromethyl)-2-pyridyl]phenyl]methyl]pyrrolidin-2-one] | 33
Cc1cc(C(F)(F)F)nc(-c2ccc(CN3CCOCC3=O)cc2)c1CF [Example 20, 4-[[4-[3-(Fluoromethyl)-4-methyl-6-(trifluoromethyl)-2-pyridyl]phenyl]methyl]morpholin-3-one] | 112
O=C1COCCN1Cc1ccc(-c2ccc(CO)c(C(F)(F)F)n2)cc1 [Example 8, 4-[[4-[5-(Hydroxymethyl)-6-(trifluoromethyl)-2-pyridyl]phenyl]methyl]morpholin-3-one] | 14
O=C1CCCN1Cc1ccc(-c2nc(C(F)(F)F)ncc2CF)cc1 [Example 18, 1-[[4-[5-(Fluoromethyl)-2-(trifluoromethyl)pyrimidin-4-yl]phenyl]methyl]pyrrolidin-2-one] | 5
Cc1nc(C(F)(F)F)nc(-c2ccc(CN3CCCC3=O)cc2)c1C [Example 6, 1-[[4-[5,6-Dimethyl-2-(trifluoromethyl)pyrimidin-4-yl]phenyl]methyl]pyrrolidin-2-one] | 29
O=C1CCCN1Cc1ccc(-c2nc(C(F)(F)F)ccc2CF)cc1 [Example 19, 1-[[4-[3-(Fluoromethyl)-6-(trifluoromethyl)-2-pyridyl]phenyl]methyl]pyrrolidin-2-one] | 70
Cc1cc(C(F)(F)F)nc(-c2ccc(CN3CCCOCC3=O)cc2)c1CO [Example 12, 4-[[4-[3-(Hydroxymethyl)-4-methyl-6-(trifluoromethyl)-2-pyridyl]phenyl]methyl]-1,4-oxazepan-3-one] | 9
Cc1cc(C(F)(F)F)nc(-c2ccc(CN3CCCC3=O)nc2)c1CF [Example 22, 1-[[5-[3-(Fluoromethyl)-4-methyl-6-(trifluoromethyl)-2-pyridyl]-2-pyridyl]methyl]pyrrolidin-2-one] | 93
O=C1CCCN1Cc1ccc(-c2cc(CO)cc(C(F)(F)F)n2)cc1 [Example 25, 1-[[4-[4-(Hydroxymethyl)-6-(trifluoromethyl)-2-pyridyl]phenyl]methyl]pyrrolidin-2-one] | 8
Cc1cc(C(F)(F)F)nc(-c2ccc(CN3CCOCC3=O)cc2)c1CO [Example 9, 4-[[4-[3-(Hydroxymethyl)-4-methyl-6-(trifluoromethyl)-2-pyridyl]phenyl]methyl]morpholin-3-one] | 14
CNC(=O)c1c(C)cc(C(F)(F)F)nc1-c1ccc(CN2CCCC2=O)cc1 [Example 3, N,4-Dimethyl-2-[4-[(2-oxopyrrolidin-1-yl)methyl]phenyl]-6-(trifluoromethyl)pyridine-3-carboxamide] | 4
O=C1CCCN1Cc1ccc(-c2nc(C(F)F)ccc2CO)cc1 [Example 28, 1-[[4-[6-(Difluoromethyl)-3-(hydroxymethyl)-2-pyridyl]phenyl]methyl]pyrrolidin-2-one] | 2
